Values joined by “and” are separate entries in the source; they are usually repeats but may differ in a detail not shown here. Equal entries are not always repeated. Structures can show the parent of a compound that is named as a salt. Where two headings read alike, the source gives them in different places.
Assays:
OAT2-tv3 = test system: OAT2-tv3; parameters: method as in Sato et al., 2010; conditions: OAT2-tv3 in HEK293 cells; ref Sato et al., 2010; cited from earlier work
OAT2-tv1 [1] = target: T1, OAT2-tv1 (Homo sapiens, UniProt Q9Y694); conditions: cited from earlier work
T1 sequence (Q9Y694 1-546 isoform Q9Y694-2): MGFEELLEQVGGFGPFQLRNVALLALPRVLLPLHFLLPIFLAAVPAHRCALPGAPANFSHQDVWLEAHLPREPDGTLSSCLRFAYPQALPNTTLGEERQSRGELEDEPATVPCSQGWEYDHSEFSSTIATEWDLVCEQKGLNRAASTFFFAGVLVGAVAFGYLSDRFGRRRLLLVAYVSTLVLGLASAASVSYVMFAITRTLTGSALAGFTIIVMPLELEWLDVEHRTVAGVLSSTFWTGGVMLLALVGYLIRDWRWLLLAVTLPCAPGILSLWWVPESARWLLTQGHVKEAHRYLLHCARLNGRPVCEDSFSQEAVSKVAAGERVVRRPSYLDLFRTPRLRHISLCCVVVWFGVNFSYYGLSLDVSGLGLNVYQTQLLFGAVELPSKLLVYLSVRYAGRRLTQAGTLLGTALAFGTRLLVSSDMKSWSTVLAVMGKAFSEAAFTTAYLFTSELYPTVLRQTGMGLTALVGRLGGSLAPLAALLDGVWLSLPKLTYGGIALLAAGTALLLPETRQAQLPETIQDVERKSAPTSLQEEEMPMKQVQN

OAT2-tv1 [2] = target: T1, OAT2-tv1; test: Inhibition of [3H]penciclovir uptake into CHO-OAT2-tv1 cells; assay type: cell-based; conditions: 5 min; for IC50 / % Inhibition: room temperature; for % Inhibition: inhibition of [3H]penciclovir uptake by CHO-OAT2-tv1 cells at the maximum concentration of test compound (Table 2, c1); for cis-inhibition of penciclovir uptake: CHO-OAT2-tv1 cells, test compound 1 mM, [3H]penciclovir ∼30 nM
Method: (§1) All experiments examining cellular radiolabeled compound uptake were conducted using cells grown to confluence in 24-well flat bottom plates. The transport solution consisted of WB (room temperature) containing radiolabeled compound and the uptake period for all experiments was at an initial rate time point of 5 min. [^3H]Penciclovir served as the probe OAT2 substrate. We also examined the uptake of [^3H]para-aminohippurate, [^3H]estrone-3-sulfate, [^14C]glutarate, [^14C]succinate, [^3H]paclitaxel, and [^3H]dehydroepiandrosterone sulfate by OAT2 since published studies indicate that they are substrates of the transport protein ([Sun et al., 2001]; [Kobayashi et al., 2005a]). […] For all cellular uptake experiments, the medium was aspirated and the cells were rinsed once with WB (0.3 ml). Following the uptake period, cells were washed three times with ice-cold WB (0.5 ml each wash). After aspirating the final wash the cells were lysed in 0.5 N NaOH/1% SDS (0.4 ml) for ∼30 min on an orbital shaker. 1 N HCl (0.2 ml) was then added to neutralize the NaOH, and the cell lysates (0.5 ml) were transferred to scintillation vials containing liquid scintillation cocktail (CytoScint ES, MP Biomedicals). Cellular radioactivity content was determined with a Beckman LS6500 liquid scintillation counter. Protein content was determined using the bicinchoninic acid method. See the Figure and Table Legends for additional details describing the experimental conditions used.
The concentration of each Kreb’s cycle intermediate was 1 mM. Uptake was conducted for 5 min.

[3] = test system: OAT2 with an unidentified sequence; conditions: cited from earlier work
OAT2-tv1 [4] = target: T1, OAT2-tv1; test: Cellular uptake of radiolabeled compounds by CHO, HEK or MDCK cells stably expressing OAT2-tv1; conditions: for uptake compared to respective parental cells: CHO-, HEK- and MDCK-OAT2-tv1 cells, para-aminohippurate 8 nM, estrone-3-sulfate 10 nM, glutarate 18 μM
Method: as §1
FIGURE 2 Cellular accumulation of [^3H]penciclovir (A), [^3H]para-aminohippurate (B), [^3H]estrone-3-sulfate (C), or [^14C]glutarate (D) by parental CHO, HEK, or MDCK cells, or CHO, HEK, or MDCK cells stably expressing either OAT2-tv1 or OAT2-tv2. The concentration of [^3H]penciclovir in the transport solution was 0.1 μM for CHO and MDCK cell experiments, and 0.5 μM for HEK cell experiments. The concentrations of [^3H]para-aminohippurate, [^3H]estrone-3-sulfate and [^14C]glutarate were 8 nM, 10 nM, and 18 μM, respectively. Uptake was conducted for 5 min at room temperature.
FIGURE 4 Cellular accumulation of [^14C]succinate (18.5 μM) by CHO parental cells, CHO-OAT2-tv1 cells or CHO cells stably expressing the Na-dicarboxylate cotransporter 3 (NaDC3). Uptake was conducted for 5 min. Values are the mean ± standard error of the mean of four experiments for CHO parental and CHO-OAT2-tv1 cells. A single uptake experiment was performed with CHO-NaDC3 cells.

OAT2-tv2 [5] = target: T2, OAT2-tv2 (Homo sapiens, UniProt Q9Y694); test: Cellular uptake of radiolabeled compounds by CHO, HEK or MDCK cells stably expressing OAT2-tv2; assay type: cell-based; parameters: The open reading frame of the human ortholog of OAT2 transcript variant 2 (OAT2-tv2) containing 548 amino acids was amplified from a construct obtained from Origene; host or cells: CHO, HEK and MDCK Flp-In cells; conditions: HEK- and MDCK-OAT2-tv2 cells, penciclovir 0.1/0.5 μM, para-aminohippurate 8 nM, estrone-3-sulfate 10 nM, glutarate 18 μM, 5 min
T2 sequence (Q9Y694 1-548): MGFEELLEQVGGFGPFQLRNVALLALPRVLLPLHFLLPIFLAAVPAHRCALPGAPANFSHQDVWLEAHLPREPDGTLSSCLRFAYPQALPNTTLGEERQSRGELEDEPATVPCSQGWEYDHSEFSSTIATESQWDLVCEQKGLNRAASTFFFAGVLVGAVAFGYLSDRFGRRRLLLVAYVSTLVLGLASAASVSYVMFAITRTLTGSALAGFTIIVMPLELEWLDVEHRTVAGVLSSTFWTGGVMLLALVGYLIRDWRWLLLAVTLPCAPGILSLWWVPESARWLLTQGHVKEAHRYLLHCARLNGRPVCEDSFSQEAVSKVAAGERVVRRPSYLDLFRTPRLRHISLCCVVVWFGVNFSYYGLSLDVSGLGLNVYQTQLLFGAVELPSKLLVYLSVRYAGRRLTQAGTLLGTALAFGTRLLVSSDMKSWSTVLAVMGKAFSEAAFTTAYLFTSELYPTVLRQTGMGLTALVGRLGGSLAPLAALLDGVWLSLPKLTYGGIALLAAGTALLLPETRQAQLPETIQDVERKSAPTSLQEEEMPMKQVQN
Method: [^3H]Penciclovir served as the probe OAT2 substrate. […] Protein content was determined using the bicinchoninic acid method.
Uptake was conducted for 5 min at room temperature.

OAT2-tv2 [6] = target: T2, OAT2-tv2; parameters: method as in Kobayashi et al., 2005a; conditions: OAT2-tv2 in Xenopus oocytes pre-loaded with 5 mM compound; ref Kobayashi et al., 2005a; cited from earlier work
CHO parental cells = test: Cellular accumulation of radiolabeled compounds in CHO parental cells; assay type: cell-based, Chinese hamster; conditions: [3H]dehydroepiandrosterone sulfate 12 nM, [3H]paclitaxel 22 nM, n = 3
[7] = IC50, inhibition of [3H]penciclovir uptake by CHO-OAT2-tv1 cells
[8] = inhibition of [3H]penciclovir uptake by CHO-OAT2-tv1 cells, read-out: IC50

Oc1ncnc2[nH]ncc12 [Allopurinol]
inhibition of uric acid transport (OAT2-tv3): did not inhibit uric acid transport | substrate of OAT2-tv1 (OAT2-tv1 [1]; ref Cropp et al., 2008): substrate | IC50 (OAT2-tv1 [2]; [7]): 70 µM and 70.1 µM | % Inhibition (OAT2-tv1 [2]): 95%

Nc1ccn(C[C@@H](CO)OCP(=O)(O)O)c(=O)n1 [Cidofovir]
% Inhibition (OAT2-tv1 [2]): 53%

CN/C(=N/CCSCc1nc[nH]c1C)NC#N [Cimetidine]
% Inhibition (OAT2-tv1 [2]): 95% | IC50 (OAT2-tv1 [2]; [8]): 57 µM and 57.2 µM | inhibition of OAT2 ([3]; ref Khamdang et al., 2004): no inhibition

O=C(O)C[C@@H](O)C(=O)O [D-malate]
cis-inhibition of penciclovir uptake (OAT2-tv1 [2]): none of the Kreb’s cycle intermediates tested, including succinate and fumarate, cis-inhibited penciclovir uptake

CC[C@H]1OC(=O)[C@H](C)[C@@H](O[C@H]2C[C@@](C)(OC)[C@@H](O)[C@H](C)O2)[C@H](C)[C@@H](O[C@@H]2O[C@H](C)C[C@H](N(C)C)[C@H]2O)[C@](C)(O)C[C@@H](C)C(=O)[C@H](C)[C@@H](O)[C@]1(C)O [Erythromycin]
% Inhibition (OAT2-tv1 [2]): 65% | IC50 (OAT2-tv1 [2]; [8]): 12 ± 5.4 µM

C[C@]12CC[C@@H]3c4ccc(OS(=O)(=O)O)cc4CC[C@H]3[C@@H]1CCC2=O [Estrone Sulfate]
uptake compared to respective parental cells (OAT2-tv1 [4]; 5 min): not different than uptake into the respective parental cells | uptake compared to respective parental cells (OAT2-tv2 [5]): not different than uptake into the respective parental cells | % Inhibition (OAT2-tv1 [2]): 95% | IC50 (OAT2-tv1 [2]; [8]): 36.1 ± 3.9 µM

NS(=O)(=O)c1cc(C(=O)O)c(NCc2ccco2)cc1Cl [Furosemide]
% Inhibition (OAT2-tv1 [2]): 90% | IC50 ([3]; ref Hasannejad et al., 2004): 603 µM

COc1ccc2c(c1)c(CC(=O)O)c(C)n2C(=O)c1ccc(Cl)cc1 [Indomethacin]
% Inhibition (OAT2-tv1 [2]): 99% | IC50 ([3]; ref Khamdang et al., 2002): 64.1 µM

CN(Cc1cnc2nc(N)nc(N)c2n1)c1ccc(C(=O)N[C@@H](CCC(=O)O)C(=O)O)cc1 [Methotrexate]
% Inhibition (OAT2-tv1 [2]): 76%

Nc1nc2c(ncn2CCC(CO)CO)c(=O)[nH]1 [Penciclovir]
uptake of penciclovir, fold higher compared to parental cells (OAT2-tv1 [4]; CHO-OAT2-tv1 cells, [3H]penciclovir 0.1 μM, 5 min): 21 fold | uptake of penciclovir, fold higher compared to parental cells (OAT2-tv1 [4]; HEK-OAT2-tv1 cells, [3H]penciclovir 0.5 μM, 5 min): 39 fold | uptake of penciclovir, fold higher compared to parental cells (OAT2-tv1 [4]; MDCK-OAT2-tv1 cells, [3H]penciclovir 0.1 μM, 5 min): 5 fold | uptake compared to respective parental cells (OAT2-tv2 [5]): not different from uptake into the respective parental cells | substrate of OAT2-tv1 (OAT2-tv1 [1]; ref Cheng et al., 2012): clearly substrates of OAT2-tv1 | % Inhibition (OAT2-tv1 [2]): 85% | IC50 (OAT2-tv1 [2]; [8]): 78.4 ± 8.2 µM

CCCN(CCC)S(=O)(=O)c1ccc(C(=O)O)cc1 [Probenecid]
% Inhibition (OAT2-tv1 [2]): 64%

CCCCC[C@H](O)/C=C/[C@H]1[C@H](O)CC(=O)[C@@H]1C/C=C\CCCC(=O)O [Prostaglandin E2]
% Inhibition (OAT2-tv1 [2]): 96% | IC50 (OAT2-tv1 [2]; [8]): 26.8 ± 2.4 µM

CCOc1cc(CC(=O)N[C@@H](CC(C)C)c2ccccc2N2CCCCC2)ccc1C(=O)O [Repaglinide]
% Inhibition (OAT2-tv1 [2]): 99% | IC50 (OAT2-tv1 [2]; [8]): 30 ± 3.6 µM

CCCc1nc2c(C)cc(-c3nc4ccccc4n3C)cc2n1Cc1ccc(-c2ccccc2C(=O)O)cc1 [Telmisartan]
% Inhibition (OAT2-tv1 [2]): 96% | IC50 (OAT2-tv1 [2]; [8]): 17.1 ± 1.3 µM

CC[N+](CC)(CC)CC [Tetraethylammonium]
% Inhibition (OAT2-tv1 [2]): 42% | IC50 (OAT2-tv1 [2]; [8]): 54.3 ± 33 µM

CCCCC[N+](CCCCC)(CCCCC)CCCCC [Tetrapentylammonium]
IC50 (OAT2-tv1 [2]; [7]): 279 ± 142 µM | % Inhibition (OAT2-tv1 [2]): 49%

CCCCC(=O)N(Cc1ccc(-c2ccccc2-c2nnn[nH]2)cc1)[C@H](C(=O)O)C(C)C [Valsartan]
% Inhibition (OAT2-tv1 [2]): 86% | IC50 (OAT2-tv1 [2]; [8]): 127 ± 29 µM

O=C(O)/C=C/C(=O)O [fumarate]
stimulation of estrone-3-sulfate uptake by pre-loading (OAT2-tv2 [6]): 1.7 fold | cis-inhibition of penciclovir uptake (OAT2-tv1 [2]): none of the Kreb’s cycle intermediates tested, including succinate and fumarate, cis-inhibited penciclovir uptake

Nc1nc(O)c2ncn(COC(CO)CO)c2n1 [ganciclovir]
substrate of OAT2-tv1 (OAT2-tv1 [1]; ref Cheng et al., 2012): clearly substrates of OAT2-tv1

O=C(O)CCCC(=O)O [glutarate]
uptake compared to respective parental cells (OAT2-tv1 [4]; 5 min): not different than uptake into the respective parental cells | uptake compared to respective parental cells (OAT2-tv2 [5]): not different than uptake into the respective parental cells

O=C(O)CC(=O)C(=O)O [oxaloacetate]
cis-inhibition of penciclovir uptake (OAT2-tv1 [2]): none of the Kreb’s cycle intermediates tested, including succinate and fumarate, cis-inhibited penciclovir uptake

CC(=O)O[C@H]1C(=O)[C@@]2(C)[C@H]([C@H](OC(=O)c3ccccc3)[C@]3(O)C[C@H](OC(=O)[C@H](O)[C@@H](NC(=O)c4ccccc4)c4ccccc4)C(C)=C1C3(C)C)[C@]1(OC(C)=O)CO[C@@H]1C[C@@H]2O [paclitaxel]
cellular accumulation (OAT2-tv1 [4]; 5 min, 22 nM): 90 ± 5.1 fmoles ⋅ mg protein^-1 ⋅ min^-1 | mediated transport by OAT2-tv1 (OAT2-tv1 [4]; expressed in CHO cells): unable to show mediated transport | cellular accumulation (CHO parental cells): 89 ± 3.8 fmoles ⋅ mg protein^-1 ⋅ min^-1

Nc1ccc(C(=O)NCC(=O)O)cc1 [para-aminohippurate]
uptake compared to respective parental cells (OAT2-tv1 [4]; 5 min): not different than uptake into the respective parental cells | uptake compared to respective parental cells (OAT2-tv2 [5]): not different than uptake into the respective parental cells | uptake by HEK-OAT2-tv1 cells (OAT2-tv1 [1]; ref Cropp et al., 2008): failed to observe appreciable uptake | % Inhibition (OAT2-tv1 [2]): 99% | IC50 (OAT2-tv1 [2]; [8]): 210 µM
